These compounds were tested against T1, SARM1 (50-724) (Homo sapiens, UniProt Q6SZW1) (assay: biochemical).
T1 sequence (Q6SZW1 50-724): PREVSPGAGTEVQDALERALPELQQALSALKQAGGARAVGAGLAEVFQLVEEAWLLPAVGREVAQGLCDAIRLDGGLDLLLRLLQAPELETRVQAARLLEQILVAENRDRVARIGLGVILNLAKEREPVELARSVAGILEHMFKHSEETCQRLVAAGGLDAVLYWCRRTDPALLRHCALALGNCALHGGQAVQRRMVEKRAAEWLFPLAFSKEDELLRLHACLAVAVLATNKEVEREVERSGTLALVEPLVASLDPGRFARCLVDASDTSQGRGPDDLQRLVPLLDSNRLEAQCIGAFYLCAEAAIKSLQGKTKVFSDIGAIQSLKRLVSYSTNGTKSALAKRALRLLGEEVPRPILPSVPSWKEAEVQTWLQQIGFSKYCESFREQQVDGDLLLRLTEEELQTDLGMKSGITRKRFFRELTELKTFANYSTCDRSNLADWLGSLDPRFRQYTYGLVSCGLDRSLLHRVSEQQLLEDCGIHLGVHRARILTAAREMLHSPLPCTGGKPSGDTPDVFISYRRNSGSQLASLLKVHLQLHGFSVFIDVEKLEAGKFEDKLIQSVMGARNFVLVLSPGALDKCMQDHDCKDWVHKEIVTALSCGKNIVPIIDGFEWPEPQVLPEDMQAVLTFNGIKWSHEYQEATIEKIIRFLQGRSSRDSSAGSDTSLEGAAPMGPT
Experimental: An enzymatic assay was performed in a 384-well plate using Dulbecco's phosphate-buffered saline (PBS) as the reaction buffer. […] The reaction was initiated by adding a mixture of 200 μM nicotinamide mononucleotide (NMN) as activator and 100 μM NAD^+ as substrate. After 1 h of incubation at room temperature, the reaction was terminated with 10 times volume of 70% acetonitrile, then centrifuged at 3800 rpm for 10 min.

| IC50 [nM] | SMILES |
| --- | --- |
| 100 to 500 | COc1nccc2ccc(NC(C)c3c(Cl)nn(C)c3Cl)cc12 (racemic) [Compound 248, N-(1-(3,5-dichloro-1-methyl-1H-pyrazol-4-yl)ethyl)-1-methoxyisoquinolin-7-amine] |
| < 100 | CC(Nc1ccc2cn[nH]c2c1)c1nc(Cl)c(Cl)s1 (racemic) [Compound 249, N-(1-(4,5-dichlorothiazol-2-yl)ethyl)-1H-indazol-6-amine] |
| < 100 | O=c1[nH]ccc2ccc(NC(CCO)c3cccc(Cl)c3Cl)cc12 (racemic) [Compound 252, 7-((1-(2,3-dichlorophenyl)-3-hydroxypropyl)amino)isoquinolin-1(2H)-one] |
| < 100 | CC(C)(O)C(Nc1ccc2cc[nH]c(=O)c2c1)c1cccc(Cl)c1Cl (racemic) [Compound 253, 7-((1-(2,3-dichlorophenyl)-2-hydroxy-2-methylpropyl)amino)isoquinolin-1(2H)-one] |
| < 100 | CC(Nc1ccc2cc[nH]c(=O)c2c1)c1nn(C)c(Cl)c1Cl (racemic) [Compound 256, 7-((1-(4,5-dichloro-1-methyl-1H-pyrazol-3-yl)ethyl)amino)isoquinolin-1(2H)-one] |
| < 100 | Cc1c(Cl)c(C(C)Nc2ccc3cc[nH]c(=O)c3c2)nn1CC(F)(F)F (racemic) [Compound 257, 7-((1-(4-chloro-5-methyl-1-(2,2,2-trifluoroethyl)-1H-pyrazol-3-yl)ethyl)amino)isoquinolin-1(2H)-one] |
| < 100 | CC(Nc1ccc2c(c1)NC(=O)OC2(C)C)c1nc(Cl)c(Cl)s1 (racemic) [Compound 258, 7-((1-(4,5-dichlorothiazol-2-yl)ethyl)amino)-4,4-dimethyl-1,4-dihydro-2H-benzo[d][1,3]oxazin-2-one] |
| < 100 | CC(Nc1ccc2nc[nH]c(=O)c2n1)c1c(Cl)ccc(F)c1Cl (racemic) [Compound 259, 6-((1-(2,6-dichloro-3-fluorophenyl)ethyl)amino)pyrido[3,2-d]pyrimidin-4(3H)-one] |
| 100 to 500 | Cc1snc(C(C)Nc2ccc3nc[nH]c(=O)c3c2)c1Cl (racemic) [Compound 260, 6-((1-(4-chloro-5-methylisothiazol-3-yl)ethyl)amino)quinazolin-4(3H)-one] |
| < 100 | Cc1n[nH]c2cc(NC(C)c3nc(Cl)c(Cl)s3)ccc12 (racemic) [Compound 261, N-(1-(4,5-dichlorothiazol-2-yl)ethyl)-3-methyl-1H-indazol-6-amine] |
| 100 to 500 | COc1nccc2ccc(NC(C)c3nc4c(s3)CN(C(=O)OC(C)(C)C)CC4)cc12 (racemic) [Compound 262, tert-butyl 2-(1-((1-methoxyisoquinolin-7-yl)amino)ethyl)-6,7-dihydrothiazolo[5,4-c]pyridine-5(4H)-carboxylate] |
| < 100 | CC(Nc1ccc2c(c1)nc(C(N)=O)n2C)c1c(Cl)ccc(F)c1Cl (racemic) [Compound 263, 5-((1-(2,6-dichloro-3-fluorophenyl)ethyl)amino)-1-methyl-1H-benzo[d]imidazole-2-carboxamide] |
| < 100 | Cc1n[nH]c(=O)c2cc(NC(C)c3nccc(Cl)c3Cl)ccc12 (racemic) [Compound 266, 7-((1-(3,4-dichloropyridin-2-yl)ethyl)amino)-4-methylphthalazin-1(2H)-one] |
| < 100 | CC(Nc1ccc2c(c1)NC(=O)C2(C)C)c1cncc(Cl)c1Cl (racemic) [Compound 267, 6-((1-(4,5-dichloropyridin-3-yl)ethyl)amino)-3,3-dimethylindolin-2-one] |
| < 100 | CC1Cc2ccc(NS(=O)(=O)c3cccc(Cl)c3Cl)cc2NC1=O (racemic) [Compound 269, 2,3-dichloro-N-(3-methyl-2-oxo-3,4-dihydro-1H-quinolin-7-yl)benzenesulfonamide] |
| < 100 | CC(Nc1cc(F)c2nc[nH]c(=O)c2c1)c1nc(Cl)c(Cl)s1 (racemic) [Compound 271, 6-((1-(4,5-dichlorothiazol-2-yl)ethyl)amino)-8-fluoroquinazolin-4(3H)-one] |
| < 100 | CCC(Nc1ccc2c(OC)n[nH]c(=O)c2c1)c1nc(Cl)c(Cl)s1 (racemic) [Compound 272, 7-((1-(4,5-dichlorothiazol-2-yl)propyl)amino)-4-methoxyphthalazin-1(2H)-one] |
| < 100 | CC1(C)CC(O)c2cc(NS(=O)(=O)c3cccc(Cl)c3Cl)ccc21 (racemic) [Compound 274, 2,3-dichloro-N-(3-hydroxy-1,1-dimethyl-2,3-dihydro-1H-inden-5-yl)benzenesulfonamide] |

| IC50 [nM] | SMILES |
| --- | --- |
| < 100 | Cc1n[nH]c(=O)c2cc(NC(C)c3cncc(Cl)c3Cl)ccc12 (racemic) [Compound 275, 7-((1-(4,5-dichloropyridin-3-yl)ethyl)amino)-4-methylphthalazin-1(2H)-one] |
| < 100 | CC(Nc1ccc2c(c1)N(C(N)=O)CC2(C)C)c1nc(Cl)c(Cl)s1 (racemic) [Compound 276, 6-((1-(4,5-dichlorothiazol-2-yl)ethyl)amino)-3,3-dimethylindoline-1-carboxamide] |
| < 100 | CC(Nc1ccc2c(c1)N(CCO)C(=O)C2(C)C)c1nc(Cl)c(Cl)s1 (racemic) [Compound 277, 6-((1-(4,5-dichlorothiazol-2-yl)ethyl)amino)-1-(2-hydroxyethyl)-3,3-dimethylindolin-2-one] |
| < 100 | CC(Nc1ccc2c(c1)C(=O)NC2(C)C)c1nc(Cl)c(Cl)s1 (racemic) [Compound 278, 6-[1-(4,5-dichlorothiazol-2-yl)ethylamino]-3,3-dimethyl-isoindolin-1-one] |
| < 100 | CC(Nc1ccc2c(c1)c(C(=O)NCCO)nn2C)c1c(Cl)ccc(F)c1Cl (racemic) [Compound 282, 5-((1-(2,6-dichloro-3-fluorophenyl)ethyl)amino)-N-(2-hydroxyethyl)-1-methyl-1H-indazol-3-carboxamide] |
| < 100 | CC(=O)NC1CCCc2ccc(NS(=O)(=O)c3cccc(Cl)c3Cl)cc21 (racemic) [Compound 283, N-(7-((2,3-dichlorophenyl)sulfonamido)-1,2,3,4-tetrahydronaphthalen-1-yl)acetamide] |
| < 100 | CC(Nc1ccc2ccn(CC(N)=O)c(=O)c2c1)c1nc(Cl)c(Cl)s1 (racemic) [Compound 290, 2-(7-((1-(4,5-dichlorothiazol-2-yl)ethyl)amino)-1-oxoisoquinolin-2(1H)-yl)acetamide] |
| < 100 | CC(Nc1cc(F)c2ncn(CCO)c(=O)c2c1)c1nc(Cl)c(Cl)s1 (racemic) [Compound 297, 6-((1-(4,5-dichlorothiazol-2-yl)ethyl)amino)-8-fluoro-3-(2-hydroxyethyl)quinazolin-4(3H)-one] |
| < 100 | CC1(C)CC(C#N)c2cc(NS(=O)(=O)c3cccc(Cl)c3Cl)ccc21 (racemic) [Compound 298, 2,3-dichloro-N-(3-cyano-1,1-dimethyl-2,3-dihydro-1H-inden-5-yl)benzenesulfonamide] |
| < 100 | Cc1nn(CC(N)=O)c(=O)c2cc(NC(C)c3c(Cl)ccc(F)c3Cl)ccc12 (racemic) [Compound 300, 2-(7-((1-(2,6-dichloro-3-fluorophenyl)ethyl)amino)-4-methyl-1-oxophthalazin-2(1H)-yl)acetamide] |
| < 100 | Cc1nn(CCO)c2cc(NC(C)c3nc(Cl)c(Cl)s3)ccc12 (racemic) [Compound 301, 2-(6-((1-(4,5-dichlorothiazol-2-yl)ethyl)amino)-3-methyl-1H-indazol-1-yl)ethan-1-ol] |
| < 100 | O=C1NC(CO)CCc2ccc(NS(=O)(=O)c3cccc(Cl)c3Cl)cc21 (racemic) [Compound 304A, 2,3-dichloro-N-(3-(hydroxymethyl)-1-oxo-2,3,4,5-tetrahydro-1H-benzo[c]azepin-8-yl)benzenesulfonamide] |
| < 100 | CC(Nc1ccc2ccn(CCO)c(=O)c2c1)c1nc(Cl)c(Cl)s1 (racemic) [Compound 305, 7-((1-(4,5-dichlorothiazol-2-yl)ethyl)amino)-2-(2-hydroxyethyl)isoquinolin-1(2H)-one] |
| < 100 | Cc1c2ccc(NC(C)c3nc(Cl)c(Cl)s3)cc2nn1CCO (racemic) [Compound 307, 2-(6-((1-(4,5-dichlorothiazol-2-yl)ethyl)amino)-3-methyl-2H-indazol-2-yl)ethan-1-ol] |
| 100 to 500 | CC(Nc1ccc2cc[nH]c(=O)c2c1)c1nc(Cl)n(C)c1Cl (racemic) [Compound 308, 7-((1-(2,5-dichloro-1-methyl-1H-imidazol-4-yl)ethyl)amino)isoquinolin-1(2H)-one] |
| < 100 | CC(Nc1ccc2c(c1)c(C(N)=O)nn2C)c1nc(Cl)c(Cl)s1 (racemic) [Compound 310, 5-((1-(4,5-dichlorothiazol-2-yl)ethyl)amino)-1-methyl-1H-indazole-3-carboxamide] |
| < 100 | Cc1n[nH]c(=O)c2nc(NC(C)c3nn(C)c(Cl)c3Cl)ccc12 (racemic) [Compound 311, 2-((1-(4,5-dichloro-1-methyl-1H-pyrazol-3-yl)ethyl)amino)-5-methylpyrido[2,3-d]pyridazin-8(7H)-one] |
| < 100 | Cc1c2ccc(NC(C)c3nc(Cl)c(Cl)s3)cc2nn1CC(N)=O (racemic) [Compound 312A, 2-(6-((1-(4,5-dichlorothiazol-2-yl)ethyl)amino)-3-methyl-2H-indazol-2-yl)acetamide] |
